In patent publication US10548316B2, “Diarylazole compound and harmful organism control agent” (Nippon Soda Co., Ltd., priority 2015, dated 2020):

How the values were obtained:
Pseudaletia separata = assay: Efficacy test against Pseudaletia separata (artificial diet); type: in vivo; conditions: for insect mortality rate: in vivo
Procedure: (§1) 5 parts of the compound of the present invention, 93.6 parts of dimethylformamide, and 1.4 parts of polyoxyethylene alkylaryl ether were mixed and dissolved to prepare an emulsion (I) of 5% of the active ingredient.
(§2) The insect mortality rate and the control rate were calculated by the following formula. Insect mortality rate (%)=(number of dead insects/number of sample insects)×100 Prevention rate=[1−(Nt)/(Nc)]×100
0.8 g of commercially available artificial diet (Insecta US, manufactured by Nosan Corporation) and 1 μl of emulsion (1) were well mixed and 0.2 g of the resulting mixture was packed in a plastic test container (1.4 ml) per each treatment group to prepare test feeds.
2 second-instar larvae of Pseudaletia separata were inoculated into each treatment group and sealed with a plastic lid. The plastic test containers were placed in a thermostatic chamber with a temperature of 25° C., and the insect mortality rate and the food intake amount were investigated on the fifth day. The test was repeated twice.
Further, a test under the same conditions except that the compound of the present invention was removed from emulsion (I) was conducted as a solvent control group.

Culex pipiens = assay: Efficacy test against Culex pipiens; type: in vivo; conditions: 2 ppm; first-instar larvae; after 1 day
Procedure: as §1, §2
Emulsion (I) was diluted with water so that the concentration of the compound of the present invention reaches 2 ppm to prepare a chemical solution for test. 20 first-instar larvae of Culex pipiens were released into 100 ml of the chemical solution for test, then the number of dead insects was calculated after 1 day was passed, and the insect mortality rate was calculated by the formula. The test was repeated twice.

CCS(=O)(=O)c1cc(C(F)(F)F)ccc1-n1cc(-c2ccc(OC(F)(F)F)cc2)cn1 [Compound 1-14]
insect mortality rate (Pseudaletia separata): 100%
insect mortality rate (Culex pipiens): 100%

CCS(=O)(=O)c1cc(C(F)(F)F)ccc1-n1ncc(-c2ccc(OC(F)(F)F)c(Cl)c2)c1N [Compound 1-38]
insect mortality rate (Pseudaletia separata): 100%

CCS(=O)(=O)c1cc(C(F)(F)F)ccc1-n1ncc(-c2ccc(C(F)(F)C(F)(F)F)nc2)c1C#N [Compound 1-52]
insect mortality rate (Pseudaletia separata): 100%

CCS(=O)(=O)c1cc(C(F)(F)F)ccc1-n1ncc(-c2cccc(OC(F)(F)F)c2)c1N [Compound 1-34]
insect mortality rate (Pseudaletia separata): 100%

CCS(=O)(=O)c1cccnc1-n1ncc(-c2ccc(C(F)(F)C(F)(F)F)cc2)c1C [Compound 2-9]
insect mortality rate (Pseudaletia separata): 100%

CCS(=O)(=O)c1cc(C(F)(F)F)ccc1-n1ncc(-c2ccc(C(F)(F)F)c(Cl)c2)c1N [Compound 1-36]
insect mortality rate (Pseudaletia separata): 100%

CCS(=O)(=O)c1cccnc1-n1ncc(-c2ccc(C(F)(F)C(F)(F)F)nc2)c1C [Compound 2-16]
insect mortality rate (Pseudaletia separata): 100%

CCS(=O)(=O)c1cccnc1-n1ncc(-c2ccc(OC(F)(F)F)cc2)c1C [Compound 2-8]
insect mortality rate (Pseudaletia separata): 100%

CCS(=O)(=O)c1cc(C(F)(F)F)ccc1-n1cc(-c2ccc(OC(F)(F)F)cc2)nn1 [Compound 4-8, 1-(2-(Ethylsulfonyl)-4-(trifluoromethyl)phenyl)-4-(4-(trifluoromethoxy)phenyl)-1H-1,2,3-triazole]
melting point: 178 to 179 °C

CCS(=O)(=O)c1cc(C(F)(F)F)ccc1-n1cc(-c2ccc(C(F)(F)C(F)(F)F)cc2)cn1 [Compound 1-22]
insect mortality rate (Pseudaletia separata): 100%

CCS(=O)(=O)c1cc(C(F)(F)F)ccc1-n1ncc(-c2ccc(C(F)(F)F)cc2)c1N [Compound 1-5]
insect mortality rate (Pseudaletia separata): 100%

CCS(=O)(=O)c1cc(C(F)(F)F)ccc1-n1ncc(-c2cc(C(F)(F)F)cc(C(F)(F)F)c2)c1N [Compound 1-28]
insect mortality rate (Pseudaletia separata): 100%

CCS(=O)(=O)c1cc(C(F)(F)F)ccc1-n1ncc(-c2ccc(C(F)(F)F)nc2)c1C [Compound 1-24]
insect mortality rate (Pseudaletia separata): 100%
insect mortality rate (Culex pipiens): 100%

CCSc1cc(C(F)(F)F)ccc1-n1ncc(-c2ccc(C(F)(F)F)cc2)c1N [Compound 1-4]
insect mortality rate (Pseudaletia separata): 100%

CCS(=O)(=O)c1cc(C(F)(F)F)ccc1-n1cc(-c2cc(C(F)(F)F)cc(C(F)(F)F)c2)cn1 [Compound 1-27]
insect mortality rate (Pseudaletia separata): 100%

CCS(=O)(=O)c1cc(C(F)(F)F)ccc1-n1cc(-c2ccc(C(F)(F)F)cc2)cn1 [Compound 1-2]
insect mortality rate (Pseudaletia separata): 100%

CCS(=O)(=O)c1cc(C(F)(F)F)ccc1-n1nnc(-c2ccc(C(F)(F)F)cc2)c1C [Compound 4-6, 1-(2-(Ethylsulfonyl)-4-(trifluoromethyl)phenyl)-5-methyl-4-(4-(trifluoromethyl)phenyl)-1H-1,2,3-triazole]
melting point: 154 to 156 °C

CCSc1cc(C(F)(F)F)ccc1-c1cn(-c2ccc(OC(F)(F)F)cc2)nn1 [Compound 5-1]
insect mortality rate (Pseudaletia separata): 100%

CCS(=O)(=O)c1cccnc1-n1ncc(-c2ccc(SC(F)(F)F)cc2)c1N [Compound 2-12]
insect mortality rate (Pseudaletia separata): 100%

CCS(=O)(=O)c1cc(C(F)(F)F)ccc1-n1ncc(-c2ccc(C(F)(C(F)(F)F)C(F)(F)F)cc2)c1N [Compound 1-35]
insect mortality rate (Pseudaletia separata): 100%

CCS(=O)(=O)c1cc(C(F)(F)F)ccc1-n1ncc(-c2ccc(OC(F)(F)F)cc2)c1Br [Compound 1-20]
insect mortality rate (Pseudaletia separata): 100%

CCSc1cc(C(F)(F)F)ccc1-n1cc(-c2ccc(C(F)(F)F)cc2)cn1 [Compound 1-1]
insect mortality rate (Pseudaletia separata): 100%

CCS(=O)(=O)c1cc(C(F)(F)F)cnc1-n1ncc(-c2ccc(OC(F)(F)F)cc2)c1C [Compound 2-7]
insect mortality rate (Pseudaletia separata): 100%

CCS(=O)(=O)c1cc(C(F)(F)F)ccc1-n1ncc(-c2cc(C(F)(F)F)cc(C(F)(F)F)c2)c1C [Compound 1-26]
insect mortality rate (Pseudaletia separata): 100%

CCS(=O)(=O)c1cc(C(F)(F)F)ccc1-n1ncc(-c2ccc(OC(F)(F)F)cc2)c1C [Compound 1-19]
insect mortality rate (Pseudaletia separata): 100%
insect mortality rate (Culex pipiens): 100%

CCS(=O)(=O)c1cc(C(F)(F)F)ccc1-n1ncc(-c2cc(C(F)(F)F)cc(C(F)(F)F)c2)c1I [Compound 1-30]
insect mortality rate (Pseudaletia separata): 100%

CCS(=O)(=O)c1cc(C(F)(F)F)ccc1-n1cc(-n2cc(C(F)(F)F)cn2)cn1 [Compound 1-50]
insect mortality rate (Pseudaletia separata): 100%

CCS(=O)(=O)c1cc(C(F)(F)F)cnc1-n1cc(-c2ccc(OC(F)(F)F)cc2)cn1 [Compound 2-6]
insect mortality rate (Pseudaletia separata): 100%

CCS(=O)(=O)c1cc(C(F)(F)F)ccc1-n1cc(-c2ccc(C(F)(F)F)nc2)cn1 [Compound 1-15]
insect mortality rate (Pseudaletia separata): 100%

CCSc1cc(C(F)(F)F)ccc1-n1nnc(-c2ccc(C(F)(F)F)cc2)c1C [Compound 4-5, 1-(2-(Ethylthio)-4-(trifluoromethyl)phenyl)-5-methyl-4-(4-(trifluoromethyl)phenyl)-1H-1,2,3-triazole]
melting point: 79 to 80 °C

CC[S+]([O-])c1cc(C(F)(F)F)ccc1-n1ncc(-c2ccc(C(F)(F)F)cc2)c1C (stereo not shown) [Compound 1-9]
insect mortality rate (Pseudaletia separata): 100%

CCS(=O)(=O)c1cc(C(F)(F)F)ccc1-n1ncc(-c2ccc(C(F)(F)C(F)(F)F)nc2)c1C [Compound 1-47]
insect mortality rate (Pseudaletia separata): 100%

CCS(=O)(=O)c1cc(C(F)(F)F)ccc1-c1cn(-c2ccc(OC(F)(F)F)cc2)nn1 [Compound 5-2]
insect mortality rate (Pseudaletia separata): 100%

CCS(=O)(=O)c1cc(C(F)(F)F)ccc1-n1ncc(-c2ccc(C(F)(F)F)nc2)c1N [Compound 1-25]
insect mortality rate (Pseudaletia separata): 100%

CCS(=O)(=O)c1cccnc1-n1ncc(-c2ccc(C(F)(F)C(F)(F)F)cc2)c1N [Compound 2-11]
insect mortality rate (Pseudaletia separata): 100%

CCS(=O)(=O)c1cc(C(F)(F)F)ccc1-n1cc(-n2cc(C(F)(F)C(F)(F)F)cn2)cn1 [Compound 1-51]
insect mortality rate (Pseudaletia separata): 100%

CCS(=O)(=O)c1cc(C(F)(F)F)ccc1-n1cc(-c2ccc(C(F)(F)F)cc2F)cn1 [Compound 1-16]
insect mortality rate (Pseudaletia separata): 100%

CCS(=O)(=O)c1cc(C(F)(F)F)cnc1-n1ncc(-c2ccc(C(F)(F)F)nc2)c1C [Compound 2-5]
insect mortality rate (Pseudaletia separata): 100%

CCSc1cc(C(F)(F)F)ccc1-n1cc(-c2ccc(OC(F)(F)F)cc2)nn1 [Compound 4-7, 1-(2-(Ethylthio)-4-(trifluoromethyl)phenyl)-4-(4-(trifluoromethoxy)phenyl)-1H-1,2,3-triazole]
melting point: 110 to 111 °C

CCS(=O)(=O)c1cccnc1-n1ncc(-c2ccc(OC(F)(F)F)cc2)c1N [Compound 2-10]
food intake amount in ratio to the solvent control group (Pseudaletia separata; 1 μl emulsion (I) (5% active ingredient) mixed in 0.8 g artificial diet, second-instar larvae, 25° C., fifth day): ≤ 10%
insect mortality rate (Pseudaletia separata): 100%

CCS(=O)(=O)c1cc(C(F)(F)F)cnc1-n1ncc(-c2ccc(OC(F)(F)F)cc2)c1N [Compound 2-4]
insect mortality rate (Pseudaletia separata): 100%

CCS(=O)(=O)c1cc(C(F)(F)F)ccc1-n1ncc(-c2ccc(C(F)(F)C(F)(F)F)cc2)c1N [Compound 1-31]
insect mortality rate (Pseudaletia separata): 100%

CCS(=O)(=O)c1cc(C(F)(F)F)ccc1-n1ncc(-c2ccc(SC(F)(F)F)cc2)c1N [Compound 1-32]
insect mortality rate (Pseudaletia separata): 100%

CCS(=O)(=O)c1cc(C(F)(F)F)ccc1-c1cnn(-c2ccc(C(F)(F)F)cc2)c1Br [Compound 3-3]
insect mortality rate (Pseudaletia separata): 100%

CCS(=O)(=O)c1cc(C(F)(F)F)ccc1-n1ncc(-c2ccc(OC(F)(F)F)cc2)c1F [Compound 1-23]
insect mortality rate (Pseudaletia separata): 100%
